# Data: patent publication US4782081A, “Compounds and methods useful for the synthesis of thromboxane A2” (priority 1986, dated 1988)
# Several values for one entry are separate records, joined by “and”; a condition that tells them apart may be missing. Identical values can stand only once. Entries after “also recorded” stand apart in the source; their conditions may differ. Counter-ions that a name gives are not always drawn.
# How the values were obtained:
# [1] = system: human platelet rich plasma (PRP); assay: aggregation of human platelet rich plasma (PRP); type: cell-based
# Description: (§1) TXA2 S at concentrations of 16-100 nanograms/ml caused a concentration-dependent aggregation of human platelet rich plasma (PRP). Irreversible aggregation occurred with 50-100 nanograms TXA2 S/ml for all cases examined. […] These comparative potencies concur with published data. […] The aggregatory effects of TXA2 S were confined to platelets.
# human neutrophils = assay: aggregation of human neutrophils; type: cell-based
# leukotriene B4 = assay: stimulation of leukotriene B4 formation; type: cell-based, human; details: 2 ug/ml
# in vitro = in vitro ADME; details: human, plasma
# Description: as §1
# [2] = half-life in Krebs solution at 37° C. (bioassay on vascular tissue); type: physicochemical; details: leading to TXB2
# Method: Radioimmunoassay determinations of hydrolyzed TXA2 yielded values of 84±21, 60±16, 39±11, and 25±8 picograms TXB2 (mean±S.D at 95% confidence, n=3) which correspond with predicted values of 125, 62, 31, and 15 picograms, respectively. The half-life of TXA2 S at 37° C. in Krebs solution measured by bioassay on vascular tissue was 30 seconds which compares very closely with previously reported half-lives for biologically generated material. (1, 12)
# [3] = system: vascular tissue (rabbit aorta, pulmonary, mesenteric, celiac arteries and bovine coronary arteries); assay: contraction of Krebs superfused vascular tissue; type: cell-based; details: for contraction of vascular tissue / constriction of vascular tissue versus natural TXA2: rabbit aorta, pulmonary; for contraction of vascular tissue: mesenteric, celiac arteries and bovine coronary arteries; for constriction of vascular tissue versus natural TXA2: mesenteric and celiac arteries
# Method: (§2) On most tissues 2-3 ng of TXA2 S was the threshold dose for contraction, generating more than 2 g of tension with rabbit aorta and 4 g of tension with bovine coronary arteries.
# rabbit aorta = assay: contraction of Krebs superfused rabbit aorta; type: cell-based; details: threshold dose 2-3 ng
# Method: as §2
# bovine coronary arteries = assay: contraction of Krebs superfused bovine coronary arteries; type: cell-based; details: threshold dose 2-3 ng
# Method: as §2
# [4] = system: rabbit mesenteric arteries; assay: response of rabbit mesenteric arteries; type: cell-based
# Method: as §2
# rabbit celiac arteries [5] = assay: response of rabbit celiac arteries; type: cell-based
# Method: as §2
# [6] = chemical stability and storage stability; type: physicochemical
# Method: The salts of TXA2 were stable for more than one week when stored at -20 C. either as isolated solids or in basic methanol or tetrahydrofuran solution.
# To a vile containing 1 mg (0.003 mmol) H1 in 0.050 ml (d4 -)methanol was immediately added 0.0025 ml of a 0.12M solution of NaOH(D) in (D)H2 O under nitrogen. […] Such solutions were diluted and used for biological testing and could be stored for at least a week at -20° C. without significant loss in biological activity.
# (§3) TXA2 S was also prepared by saponifiction of H2 (X=H) with Me3 SiOK (10) in tetrahydrofuran and isolated as an amorphous solid by solvent evaporation.
# [7] = biological activity (biological properties of TXA2) in a variety of assays
# Method: as §3
# [8] = system: thromboxane synthetase or cyclooxygenase
# platelets = assay: inhibition of TXA2 S induced platelet aggregation; type: cell-based, human
# [9] = indirect methods; refs (14), (15); listed as biologically generated material; cited from earlier work
# [10] = 37° C., pH 7.4; refs (1,3); cited from earlier work
# [11] = system: vascular tissue (rabbit aorta, pulmonary, mesenteric, celiac arteries and bovine coronary arteries); details: generated by platelets or a partially purified platelet enzyme; cited from earlier work
# [12] = system: rabbit mesenteric arteries; details: ref (19); cited from earlier work
# rabbit celiac arteries [13] = details: ref (19); cited from earlier work
smiles,measurement,setting,value
"CCCCC[C@H](O)/C=C/[C@H]1O[C@H]2C[C@H](O2)[C@@H]1C/C=C\CCCC(=O)O [TXA2 S, Thromboxane A2]",concentration causing concentration-dependent aggregation of human PRP,[1],16-100 nanograms/ml
same,potency relative to PGH2 at inducing aggregation of human PRP,[1],approximately 10 times
same,concentration causing irreversible aggregation,[1]; all cases examined,50-100 nanograms/ml
same,aggregation of human neutrophils,human neutrophils; 2 ug/ml,did not aggregate human neutrophils
same,stimulation of formation of leukotriene B4,leukotriene B4,nor did it stimulate formation of leukotriene B4
same,half-life,in vitro,234 s
same,half-life,[2]; krebs medium,30 s
same,potency versus biologically produced TXA2,"[3]; TXA2 calculated from PGH2 originally in the incubation, assuming 100% conversion",compared well with the activity of biologically produced TXA2
same,contraction of vascular tissue,[3],contracted all vascular tissue tested
same,"tension generated, rabbit aorta",rabbit aorta,more than 2 g
same,"tension generated, bovine coronary arteries",bovine coronary arteries,> 4 g
same,response of rabbit mesenteric arteries,[4],only constriction
same,response of rabbit celiac arteries,rabbit celiac arteries [5],only constriction
same,storage without significant loss in activity,"[6]; -20° C., basic saponification solutions",up to a week
same,stability in basic saponification solutions,[6]; basic saponification solutions,relatively stable
same,stability in neutral or acidic solutions,[6]; neutral or acidic solutions,rapid decomposition
same,biological activity,[7],did exhibit biological properties
same,biological activity after hydrolysis,"[7]; 0.1M phosphate buffer, pH 7.4",eliminated its biological activity
"CCCCCC(O)C=CC1OC2CC(O2)C1CC=CCCCC(=O)O (stereo not drawn) [potassium salt of A, Thromboxane A2 Potassium]",comparative potency in aggregating human platelets versus natural TXA2,[1],indistinguishable from natural TXA2
same,aggregation of neutrophils,human neutrophils,not neutrophils
same,half-life in Krebs medium/solution,[2],30 s
same,constriction of vascular tissue versus natural TXA2,[3],indistinguishable from natural TXA2
same,resistance to inhibition by selective thromboxane synthetase or cyclooxygenase inhibitors versus natural TXA2,[8],indistinguishable from natural TXA2
"CCCCCCC=CC1C2CC(NO2)C1CC=CCCCC(=O)O (stereo not drawn) [Compound U-54701, 9,11-iminoepoxy-prosta-5,13-dienoic acid]",platelet aggregation induced by TXA2 S,platelets; inhibitor at 5-15 ug/ml,no effect
"CCCCC[C@H](O)/C=C/[C@H]1O[C@H]2C[C@H](O2)[C@@H]1C/C=C\CCCC(=O)O [TXA2, thromboxane A2]",contraction of vascular tissue,[3],contracted all vascular tissue tested
same,response of rabbit mesenteric arteries,[4],only constriction
same,response of rabbit celiac arteries,rabbit celiac arteries [5],only constriction
same,hydrolysis to TXB2,"[6]; aqueous high salt, neutral pH buffers",rapidly hydrolyzed to TXB2
same,stability at high pH,[6]; high pH,appreciably enhanced at high pH
same,"half-life in plasma, biologically generated material",[9],3 minutes and 5-6 minutes
same,T1/2 in aqueous Krebs medium,[10],32 s
same,vascular contracting activity,[11],potent vaxcular contracting activity
"CCCCCC1C=CC2OC3CC(O3)C2CC=CCCCC(=O)O1 (stereo not drawn) [Compound H2, 1,15-Anhydro Thromboxane A2]",biological activity,[7],did not show the biological properties of TXA2; also recorded: biologically inactive
CCCCC[C@H](O)/C=C/[C@@H]1[C@@H](C/C=C\CCCC(=O)O)[C@@H]2C[C@H]1OO2 [PGH2],response of rabbit mesenteric arteries to PGH2,[12],"small, short-lived contraction, followed by larger, longer lasting relaxation"
same,response of rabbit celiac arteries to PGH2,rabbit celiac arteries [13],"small, short-lived contraction, followed by larger, longer lasting relaxation"
CCCCCC(O)C=CC1OC2CC(O2)C1CC=CCCCC(=O)O (stereo not drawn) [free acid],stability of free acid in aprotic solvents,"[6]; deuterochloroform, elimination to the enol ether",underwent elimination to the corresponding enol ether over the course of several hours
"CCCCCCC=CC1C2CC(N=N2)C1CC=CCCCC(=O)O (stereo not drawn) [Compound U-51605, 9,11-diazo-prosta-5,13-dienoic acid]",TXA2-induced aggregation,platelets; inhibitor at 1-3 ug/ml,inhibited TXA2 -induced aggregation in a concentration-dependent manner
"CCCCCC(O)C=CC1OC2CC(O2)C1CC=CCCCC(=O)O (stereo not drawn) [sodium salt of A, Thromboxane A2 Sodium]",comparative potency in aggregating human platelets versus natural TXA2,[1],indistinguishable from natural TXA2
same,aggregation of neutrophils,human neutrophils,not neutrophils
same,half-life in Krebs medium/solution,[2],30 s
same,constriction of vascular tissue versus natural TXA2,[3],indistinguishable from natural TXA2
same,storage without significant loss in biological activity,"[6]; -20° C., methanol/water saponification solution",at least a week
same,biological activity,[7],marked activity
same,resistance to inhibition by selective thromboxane synthetase or cyclooxygenase inhibitors versus natural TXA2,[8],indistinguishable from natural TXA2
"CCCCC[C@H](O)/C=C/[C@H]1O[C@H]2C[C@H](O2)[C@@H]1C/C=C\CCCC(=O)O [A, Thromboxane A2]",biological assays versus platelet-derived TXA2,[7],indistinguishable from platelet-derived TXA2
